The source of these data is patent US20110230659A1, “CYCLOBUTYL PURINE DERIVATIVE, ANGIOGENESIS PROMOTING AGENT, LUMEN FORMATION PROMOTING AGENT, NEUROCYTE GROWTH PROMOTING AGENT, AND DRUG” (NATIONAL UNIVERSITY CORPORATION KAGAWA UNIVERSITY, priority 2008, published 2011).

Data set [1] concerns Human umbilical vein endothelial cells (HUVEC). Kind of data set: Measurement of cell proliferation (Cell Counting Kit-8). The class given is cell-based. Particulars: examined in the same manner as in Example 1. As to the method:
Sample solutions were prepared by dissolving 2-Cl—C.OXT-A in physiological saline so as to achieve predetermined concentrations (0.5, 1, 5, 10, 50, 100 mmol/l). Then, the sample solutions containing 2-Cl—C.OXT-A at the predetermined concentrations respectively were added to HuMedia-EB2 media (Kurabo) to which 2 v/v % inactivated fetal bovine serum (FBS) had been added so that their concentrations became 10 v/v %. Thus, cell proliferation media were prepared. The final concentrations of 2-Cl—C.OXT-A in the cell proliferation media were 50, 100, 500 μmol/l, 1, 5, and 10 mmol/1.
Human umbilical vein endothelial cells (HUVEC) suspended in a HuMedia-EG2 medium (Kurabo) were inoculated into each of gelatin-coated wells of a 96-well plate at a density of 3×10^3 cells per well, and cultured for 24 hours. 24 hours after the start of the culture, the medium was removed, and 100 μl of the cell proliferation medium was added to each well. The cells were cultured for another 48 hours. After the completion of the culture, a color reaction was caused using a Cell Counting Kit-8 (Dojindo Laboratories). 2 hours after the start of the reaction, the absorbance at 450 nm was measured using a microplate reader. As a control, a HuMedia-EB2 medium (Kurabo) to which 2 v/v % inactivated fetal bovine serum (FBS) had been added was used instead of the cell proliferation medium to carry out the culture, and a color reaction was caused and the absorbance was measured in the same manner as in the above. Then, using the following equation (I), the relative absorbance in the culture using each of the cell proliferation media containing 2-Cl—C.OXT-A at the predetermined concentrations was calculated.

Data set [2] shares this test system. In words: Measurement of cell migration (CytoSelect 24-well Cell Migration Assay). The class given is cell-based. The settings on record: examined in the same manner as in Example 1. As to the method:
Measurement of cell migration was carried out in the following manner using CytoSelect 24-well Cell Migration Assay (CBA-100, Cell Biolabs) kits. First, sample solutions were prepared by dissolving 2-Cl—C.OXT-A in physiological saline so as to achieve predetermined concentrations (0.1, 0.5, 1 mmol/l). Then, the sample solutions containing 2-Cl—C.OXT-A at the predetermined concentrations respectively were added to HuMedia-EB2 media (Kurabo) to which 2 v/v % inactivated fetal bovine serum (FBS) had been added so that their concentrations became 10 v/v %. Thus, cell migration media were prepared. The final concentrations of 2-Cl—C.OXT-A in the cell migration media were 10, 50, and 100 μmol/l.
Human umbilical vein endothelial cells (HUVEC) were suspended in a HuMedia-EB2 medium (Kurabo) to which 2 v/v % inactivated fetal bovine serum (FBS) had been added at a density of 0.5×10^6 cells/ml. Thus, a cell suspension was prepared. 300 μl of the cell suspension was added to an upper compartment (i.e., in an insert) of a polycarbonate membrane plate provided in the kit, and 500 μl of the cell migration medium was added to a lower compartment (i.e., in a well) of the plate. Then, the cells were cultured at 37° C. for 24 hours. After the completion of the culture, the membrane on the inner bottom face of the insert was wiped out with a cotton swab to remove the cells on the membrane. Then, cells having migrated to the rear face of the membrane (the membrane on the outer bottom face of the insert) were stained using a staining solution provided in the kit, and then photographed from below the insert. After the photographing, the dye was extracted with an extracting solution provided in the kit, and the absorbance at 560 nm was measured using a microplate reader. As a control, a HuMedia-EB2 medium (Kurabo) to which 2 v/v % inactivated fetal bovine serum (FBS) had been added was used instead of the cell migration medium to carry out the culture, and the cells were stained and the absorbance was measured in the same manner as in the above. Then, using the above equation (I), the relative absorbance in the culture using each of the cell migration media containing 2-Cl—C.OXT-A at the predetermined concentrations was calculated.

The test system of data set [3] is human umbilical vein endothelial cells (HUVEC) and normal human dermal fibroblasts. Kind of data set: Measurement of lumen formation (angiogenesis kit, CD31 immunostaining, lumen area). The settings on record: examined in the same manner as in Example 1. The class given is cell-based. Here is the method: The measurement of lumen formation was carried out in the following manner using commercially available angiogenesis kits (Kurabo), each including human umbilical vein endothelial cells (HUVEC) and normal human dermal fibroblasts. First, sample solutions were prepared by dissolving 2-Cl—C.OXT-A in physiological saline so as to achieve predetermined concentrations (1, 10, 100, 500 μmol/l, 1, 5, 10, 50 mmol/l). Then, the sample solutions containing 2-Cl—C.OXT-A at the predetermined concentrations respectively were added to media provided in the kits so that their concentrations became 10 v/v %. Thus, lumen formation media were prepared. The final concentrations of 2-Cl—C.OXT-A in the lumen formation media were 0.1, 1, 10, 50, 100, 500 μmol/l, 1 and 5 mmol/1.
Using each of the lumen formation media, the human umbilical vein endothelial cells (HUVEC) and the normal human dermal fibroblasts were cultured for 10 days. After the culture, the human umbilical vein endothelial cells (HUVEC) were immunostained using a lumen staining kit (for CD31 staining, Kurabo). Then, using NIH Image (image processing and analysis software), the area of a portion stained by the immunostaining (lumen area) was measured. As a control, a medium provided in the kit was used instead of the lumen formation medium to carry out the culture, and the cells were immunostained and the lumen area was measured in the same manner as in the above. Then, using the following equation (II), the relative value of lumen area in the culture using each of the lumen formation media containing 2-Cl—C.OXT-A at the predetermined concentrations was calculated.
In the present example, the relative value of lumen area was calculated in the same manner as in the lumen formation measurement in Example 1, except that the measurement was carried out with respect to four groups respectively using media Nos. 5 to 8 prepared by adding 2-Cl—C.OXT-A and PD98059 to media provided in the above-described angiogenesis kits (Kurabo) so that their concentrations became as shown in Table 2 below. In the group using the medium No. 7, the culture was conducted using the medium No. 7 from the first to third days of the culture and the medium No. 5 from the fourth to tenth days of the culture, and in the group using the medium No. 8, the culture was conducted using the medium No. 8 from the first to third days of the culture and the medium No. 6 from the fourth to tenth days of the culture.
In the present example, the relative value of lumen area was calculated in the same manner as in the lumen formation measurement in Example 1, except that the measurement was carried out with respect to six groups respectively using media Nos. 15 to 20 prepared by adding 2-Cl—C.OXT-A, VEGF (positive control), and SU5416 to media provided in the above-described angiogenesis kit (Kurabo) so that their concentrations became as shown in Table 4 below. In the group using the medium No. 16, the culture was conducted using the medium No. 16 from the first to third days of the culture and the medium No. 15 from the fourth to tenth days of the culture; in the group using the medium No. 18, the culture was conducted using the medium No. 18 from the first to third days of the culture and the medium No. 17 from the fourth to tenth days of the culture; and in the group using the medium No. 20, the culture was conducted using the medium No. 20 from the first to third days of the culture and the medium No. 19 from the fourth to tenth days of the culture.

In general, melting point refers to the temperature of the solid-liquid transition. `CSc1nc(N)c2ncn(C3CC(CO)C3CO)c2n1` (stereo not drawn) [2-SMe—C.OXT-A, 6-amino-2-thiomethoxy-9-[trans-trans-2,3-bis (hydroxymethyl)cyclobutyl]purine] had a melting point of 209.4 to 211 °C. The “cell proliferation promoting-activity for vascular endothelial cells” value in data set [1] is given as “exhibited”. The “cell migration promoting-activity for vascular endothelial cells” value in data set [2] is “exhibited”. Also, in data set [3], the “lumen formation promoting-activity for vascular endothelial cells” value was “exhibited”.
